Source: patent publication US20110207745A1 (priority 2009, published 2011)
Values joined by “and” are separate entries in the source; they are usually repeats but may differ in a detail not shown here. Identical values can stand only once. Counter-ions that a name gives are not always drawn. Like-named read-outs stand apart in the source and are kept apart here.

Key:
[1] = for % Purity after 60° C./80% RH, 2 wks / % Purity after 80° C., 2 wks: 2 weeks; for % Purity after 60° C./80% RH, 2 wks / % Purity after 60° C./80% RH, 4 wks / % Purity after 80° C., 2 wks / % Purity after 80° C., 4 wks / Initial Purity / % Purity after 40° C./75% RH, 2 wks / % Purity after 40° C./75% RH, 4 wks: HPLC area %; for % Purity after 60° C./80% RH, 4 wks / % Purity after 80° C., 4 wks: 4 weeks; for Initial Purity: before storage
Protocol: Stress Experiments. Solids are stressed under different temperature or relative humidity (RH) environments for a measured time period. Specific RH values are achieved by placing the sample inside sealed chambers containing saturated salt solutions, as known in the art. The salt solutions are selected and prepared following an ASTM standard procedure. Samples are analyzed by XRPD immediately after removal from the stress environment.
Analyses are carried out on an Agilent® model 1100 high performance liquid chromatograph using gradient elution on a reversed phase column utilizing ultraviolet (UV) detection. Approximately 25 mg of the sample is weighed accurately and dissolved in methanol/water/trifluoroacetic acid (35:65:0.05) to a volume of 50 mL. The sample solution is analysed using the conditions specified below:
The content of the drug and related substances are quantified by area (%).
Chemical Stability. The chemical stability of Form I of the mono-HCl salt of Compound A1 was assessed by stressing the material at various temperature/relative humidity/light conditions, then analyzing by HPLC.
Chemical Stability Data. The chemical stability of a sample of Form I of the sesquifumarate salt of Compound A1 was assessed by stressing the material at various temperature/relative humidity/light conditions, then analyzing by HPLC.

[2] = Solubility in simulated biological media; format: physicochemical; conditions: FaSSIF (fasted-state simulated intestinal fluid), initial pH 6.51, mean ± SD, n = 2
Source text: Solubility and Dissolution Rate Data.
Solubility and Dissolution Rate Data. […]

[3] = Intrinsic dissolution rate in simulated biological media; format: physicochemical
Protocol: Intrinsic dissolution rate is determined at 37° C. using a Distek Dissolution System model 5100A with a sample size of approximately 200 mg (0.5 cm^2 disc) and 500 mL dissolution medium. The paddle speed is set to 500 rpm and the paddle height to approximately 2.54 cm above the disc surface. The concentration of sample in solution is determined by HPLC.

rat = assay: Punished responding procedure (modified Geller-Seifter conflict test); conditions: 3.5 μmol/kg by mouth
Source text: Method. In the conflict test, hungry animals were trained to lever-press for food delivery in a standard operant chamber under 2 conditions. In the first condition, referred to as the unsuppressed component, food was delivered on average after 17 lever-presses were made (also called a VR17 schedule of reinforcement). In the second condition, referred to as the suppressed component and signaled by flashing lights inside the operant chamber, food was also delivered following an average of 17 lever-presses, but electric shock was additionally delivered to the floor of the cage under a separate VR17 schedule. Daily sessions consisted of 5 alternating presentations of each component type: suppressed (3 minutes in duration) and unsuppressed (2 minutes in duration). The number of lever presses emitted in the suppressed component was obviously low relative to the unsuppressed component.
Drug Administration and Preparation. […] Monday and Wednesday were washout/baseline days.
Apparatus. Standard 2-lever operant chambers were used (Med Associates). The chambers were fitted with 2 retractable response levers and a stimulus lamp over each of the 2 levers. A pellet dispenser delivered 45 mg food pellets, (Bio Serv) to a cup located inside of the chamber below and between the 2 response levers. A lamp at the top and back of the chamber served as houselights. The grid floors of the operant chambers were interfaced to shock generators and scramblers (Med Associates). All events in the chambers were controlled and monitored by a microprocessor.
Procedures. There were 2 components in the procedure: 1) an unsuppressed responding component (unpunished) with 2 minutes in duration; and 2) a suppressed responding component (punished) with 3 minutes in duration.
In the unpunished component, the houselights and both stimulus lamps over the response levers were turned on, the lever on the left-hand side of the chamber extended, and a food pellet was delivered following an average of 17 responses on the lever in the chamber (range 3 to 40 responses)—a variable-ratio 17 schedule (VR17).
In the punished component (which followed the unpunished component), the right-hand lever was extended into the chamber; the stimulus lamps and houselights were turned on and off at 1 second intervals, in succession, which served as a cue for this component; and food was available under a VR17 schedule, but was accompanied by an electrical current (0.5 second duration) that was delivered to the grid floor of the chamber under an independent VR17 schedule. The level of the current was adjusted for each individual subject until responding was reduced in the punished component to a level that was about 5% to 10% that of the unpunished component, and ranged from 0.2 mA to 0.75 mA. Unpunished and punished components were separated by 10 second time-out periods in which both response levers were retracted and all stimulus lamps turned off. 2 minute unpunished and 3 minute punished components alternated until 5 of each were completed. Daily sessions always began with the unpunished responding component. […] Several doses were tested on a given test day in different subjects. Each dose, then, was tested in different sub-set of rats.
Data Analysis. The dependent variables recorded were the rate of responding in unpunished and punished components (total responses/total time under the component) and the number of shocks delivered.

[4] = Ultraviolet light, 25° C./60% RH, 2x ICH (2 days), stored open
[5] = Ultraviolet light, 25° C./60% RH, 3x ICH (3 days), stored open
[6] = Ultraviolet light, 25° C./60% RH, ICH (1 day), stored open
[7] = White light, 25° C./60%, ICH (7 days), stored open

## CCN(CC)C(=O)c1ccc([C@H](c2cccc(N)c2)N2CCN(Cc3ccc(F)cc3)CC2)cc1 [Amorphous Tri-HCl Salt of Compound A1, 4-{(R)-(3-aminophenyl)[4-(4-fluorobenzyl)piperazin-1-yl]methyl}-N,N-diethylbenzamide]
[1]
  % Purity after 60° C./80% RH, 2 wks: 93.5%
  % Purity after 60° C./80% RH, 4 wks: 89.7%
  Initial Purity: 97.7%
[1]; 80° C.
  % Purity after 80° C., 2 wks: 93.1%
  % Purity after 80° C., 4 wks: 91.1%

## CCN(CC)C(=O)c1ccc([C@H](c2cccc(N)c2)N2CCN(Cc3ccc(F)cc3)CC2)cc1 [Form I of the mono-HCl salt of Compound A1] [4-{(R)-(3-aminophenyl)[4-(4-fluorobenzyl)piperazin-1-yl]methyl}-N,N-diethylbenzamide]
[2]; 3 hr
  Solubility, 3 hr: 1720 µg/mL
[2]; 24 hr
  Solubility, 24 hr: 830 µg/mL
[3]; FaSSIF, initial pH 6.51, mean ± SD, n = 2
  IDR (intrinsic dissolution rate): 48.4 μg/min/cm^2
[3]; FaSSIF, initial pH 6.51, mean ± SD, n = 2, listed as Form I of the Compound A1 Mono-HCl Salt
  IDR (intrinsic dissolution rate): 48.4 ± 7.12 μg/min/cm^2
[3]; FeSSIF, initial pH 5.03, mean ± SD, n = 2
  IDR (intrinsic dissolution rate): 91.6 μg/min/cm^2
[3]; FeSSIF, initial pH 5.03, mean ± SD, n = 2, listed as Form I of the Compound A1 Mono-HCl Salt
  IDR (intrinsic dissolution rate): 91.6 ± 5.48 μg/min/cm^2
[3]; SGF, initial pH 1.3
  IDR (intrinsic dissolution rate): too soluble to permit determination of its IDR
[1]; 25° C./60% RH, 7 days
  % Purity (after challenge): 99.8%
  % Purity (reference material): 103.2%
[1]; 40° C./75% RH
  % Purity after 40° C./75% RH, 2 wks: 97.3% and 98.8%
  % Purity after 40° C./75% RH, 4 wks: 97.2% and 98.8%
[1]; 40° C./75% RH, 7 days
  % Purity (after challenge): 99.8%
  % Purity (reference material): 102.1%
[1]
  % Purity after 60° C./80% RH, 2 wks: 90.4% and 97.6%
  % Purity after 60° C./80% RH, 4 wks: 89.0% and 95.3%
  Initial Purity: 97.0% and 98.7%
[1]; 80° C.
  % Purity after 80° C., 2 wks: 94.1% and 96.9%
  % Purity after 80° C., 4 wks: 92.3% and 95.4%
[1]; 80° C., 7 days
  % Purity (after challenge): 99.8%
  % Purity (reference material): 101.4%
[1]; Reference, 0 days
  % Purity (after challenge): 99.8%
  % Purity (reference material): 100%
[1]; [4]
  % Purity (after challenge): 99.2%
  % Purity (reference material): 95.0%
[1]; [5]
  % Purity (after challenge): 99.0%
  % Purity (reference material): 94.7%
[1]; [6]
  % Purity (after challenge): 99.6%
  % Purity (reference material): 98.0%
[1]; [7]
  % Purity (after challenge): 98.5%
  % Purity (reference material): 95.6%

## CCN(CC)C(=O)c1ccc([C@H](c2cccc(N)c2)N2CCN(Cc3ccc(F)cc3)CC2)cc1 [Phosphate Salt of Compound A1, 4-{(R)-(3-aminophenyl)[4-(4-fluorobenzyl)piperazin-1-yl]methyl}-N,N-diethylbenzamide]
[1]; 40° C./75% RH
  % Purity after 40° C./75% RH, 2 wks: 88.6%
  % Purity after 40° C./75% RH, 4 wks: 87.7%
[1]
  % Purity after 60° C./80% RH, 2 wks: 81.4%
  % Purity after 60° C./80% RH, 4 wks: 78.4%
  Initial Purity: 91.2%
[1]; 80° C.
  % Purity after 80° C., 2 wks: 86.6%
  % Purity after 80° C., 4 wks: 83.4%

## CCN(CC)C(=O)c1ccc([C@H](c2cccc(N)c2)N2CCN(Cc3ccc(F)cc3)CC2)cc1 [Sulfate Salt of Compound A1, 4-{(R)-(3-aminophenyl)[4-(4-fluorobenzyl)piperazin-1-yl]methyl}-N,N-diethylbenzamide]
[1]; 40° C./75% RH
  % Purity after 40° C./75% RH, 2 wks: 92.6% and 88.7%
  % Purity after 40° C./75% RH, 4 wks: 91.2% and 87.3%
[1]
  % Purity after 60° C./80% RH, 2 wks: 74.1% and 80.5%
  % Purity after 60° C./80% RH, 4 wks: 62.3% and 80.6%
  Initial Purity: 93.3% and 94.7%
[1]; 80° C.
  % Purity after 80° C., 2 wks: 78.5% and 88.7%
  % Purity after 80° C., 4 wks: 67.1% and 85.7%

## CN1C(=O)CN=C(c2ccccc2)c2cc(Cl)ccc21 [diazepam, reference compound]
rat
  level of efficacy in modified Geller-Seifter conflict model: about 250%
